A value given as a limit tells only on which side of the number the result lay.

human IDO1, sequence (P14902 whole entry): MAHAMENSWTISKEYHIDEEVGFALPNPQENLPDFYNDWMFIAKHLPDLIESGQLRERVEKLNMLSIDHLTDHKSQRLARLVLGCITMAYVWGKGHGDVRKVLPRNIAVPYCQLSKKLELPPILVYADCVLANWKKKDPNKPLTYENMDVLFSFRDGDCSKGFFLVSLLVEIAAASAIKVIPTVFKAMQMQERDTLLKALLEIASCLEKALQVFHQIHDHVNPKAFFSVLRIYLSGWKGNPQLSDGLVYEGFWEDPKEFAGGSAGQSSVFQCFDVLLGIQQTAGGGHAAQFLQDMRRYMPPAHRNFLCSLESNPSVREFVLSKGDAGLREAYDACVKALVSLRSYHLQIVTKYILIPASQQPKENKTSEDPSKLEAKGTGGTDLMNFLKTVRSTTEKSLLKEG

This assay addresses human IDO1 (Homo sapiens, UniProt P14902). In words: Assessment of human IDO-1 inhibitory activity in HEK cells (human IDO1/HEK293 cells, kynurenine read-out with Ehrlich reagent, absorbance 490 nm). The format is cell-based. Particulars: HEK Human IDO-1 cellular assay. Also on record: expressed in transfected cells. Summed up:
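HEK293 cells stably expressing human IDO1 were seeded at 10,000 per well in phenol red-free RPMI with 10% FBS, treated with compound for 20 h at 37 °C. Kynurenine was measured after TCA (0.2% final) and 30 min at 50 °C, using Ehrlich reagent, A490. IC50 normalised to DMSO (0%) and 500 nM reference standard (100%).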
As a reminder, the IC50 is the concentration that gives 50% inhibition. As to `CCC(CC(=O)O)c1cc(F)c(N(CC(C)C)CC(C)C)c(Nc2ccc(OCC(F)(F)F)cc2)c1` (single isomer, unassigned) [Example 98, 3-(4-(diisobutylamino)-3-fluoro-5-((4-(2,2,2-trifluoroethoxy)phenyl)amino)phenyl)pentanoic acid], the 50% inhibitory concentration (IC50) is greater than 50 nM. On to `CCOc1ccc(Nc2cc(C(CC)CC(=O)O)ccc2N(CC(C)C)C2CCCCC2)cc1` (single isomer, unassigned) [Example 313, 3-(4-(cyclohexyl(isobutyl)amino)-3-((4-ethoxyphenyl)amino)phenyl)pentanoic acid], for which the IC50 was less than 5 nM. With `CCN(c1ccc(C(C)(C)CC(=O)O)cc1Nc1ccc(F)cc1)C1CCC(C)(O)CC1` (stereo not shown) [Example 2, 3-(4-(ethyl(4-hydroxy-4-methylcyclohexyl)amino)-3-((4-fluorophenyl)amino)phenyl)-3-methylbutanoic acid], the IC50 was less than 5 nM. The value for `CCOc1ccc(NC(=O)Nc2cc(C(CC)CC(=O)O)c(F)cc2N(CC(C)C)CC(C)C)cc1` (racemic) [Example 1131, (±)-3-(4-(Diisobutylamino)-5-(3-(4-ethoxyphenyl)ureido)-2-fluorophenyl)pentanoic acid] was less than 5 nM; that for `Cc1ccc(CC(=O)Nc2cc(C(CC(=O)O)C3CC3)ccc2N(CC(C)C)C2CCOCC2)cc1` (racemic) [Example 1208, (+/−)-3-Cyclopropyl-3-(4-(isobutyl(tetrahydro-2H-pyran-4-yl)amino)-3-(2-(p-tolyl)acetamido)phenyl)propanoic acid] was less than 50 nM. As for `CCC(CC(=O)O)c1ccc(N2C[C@@H](C)O[C@@H](C)C2)c(Nc2ccc(C#N)cc2)c1` (single isomer, unassigned) [Example 764], the IC50 is less than 50 nM.

As for `CC[C@@H](CC(=O)O)c1ccc(N(CC(C)C)C2CCS(=O)(=O)CC2)c(NC(=O)Nc2ccc(OC)cc2F)c1` (single isomer, unassigned) [Example 216], the half-maximal inhibitory concentration (IC50) was greater than 50 nM. On to `CCC(CC(=O)O)c1ccc(N2CCC[C@H]2C(C)(C)O)c(NC(=O)Nc2ccc(OC)cc2F)c1` (single isomer, unassigned) [Example 814], for which the IC50 was greater than 50 nM.

As for `CCC(CC(=O)O)c1cc(F)c(N(CC(C)C)CC(C)C)c(Nc2ccc(Cl)cc2)c1` (single isomer, unassigned) [Example 99, 3-(3-((4-chlorophenyl)amino)-4-(diisobutylamino)-5-fluorophenyl)pentanoic acid], the IC50 is less than 5 nM.

Regarding `COCC(CC(=O)O)c1ccc(N(CC(C)C)C2CCOCC2)c(NC(=O)Nc2ccc(Cl)cc2F)c1` (single isomer, unassigned) [Example 1217, 3-(3-(3-(4-Chloro-2-fluorophenyl)ureido)-4-(isobutyl(tetrahydro-2H-pyran-4-yl)amino)phenyl)-4-methoxybutanoic acid], the 50% inhibitory concentration (IC50) was less than 5 nM.

Turning to `CC[C@H](CC(=O)O)c1ccc(N(CC)C2CCOCC2)c(Nc2ccc(Cl)c(OC)c2)c1` (single isomer, unassigned) [Example 521], the half-inhibitory concentration (IC50) was less than 50 nM. On to `CCC(CC(=O)O)c1cc(NC(=O)Nc2ccc3c(c2)OCO3)c(N(CC(C)C)CC(C)C)cc1F` (single isomer, unassigned) [Example 1135, 3-(5-(3-(Benzo[d][1,3]dioxol-5-yl)ureido)-4-(diisobutylamino)-2-fluorophenyl)pentanoic acid], for which the IC50 is less than 5 nM. As for `CCN(c1ccc(C(C)(C)CC(=O)O)cc1NC(=O)Nc1ccc(C)cc1)C1CCOCC1` [Example 167, 3-(4-(Ethyl(tetrahydro-2H-pyran-4-yl)amino)-3-(3-(p-tolyl)ureido)phenyl)-3-methylbutanoic acid], the half-maximal inhibitory concentration (IC50) was less than 50 nM. For the molecule `CC[C@H](CC(=O)O)c1ccc(N(CC(C)C)C2CCS(=O)(=O)CC2)c(Nc2ccc3c(c2)OC(F)(F)O3)c1` (single isomer, unassigned) [Example 215], the IC50 is less than 5 nM. With `CCN(c1ccc(C(C)CC(=O)O)cc1Nc1ccc(C#N)cc1)C1CCOCC1` (single isomer, unassigned) [Example 613, 3-(3-((4-cyanophenyl)amino)-4-(ethyl(tetrahydro-2H-pyran-4-yl)amino)phenyl) butanoic acid], the IC50 was less than 5 nM. With `CC[C@H](CC(=O)O)c1ccc(N(CC(C)C)CC(C)C)c(Nc2ccc3nc(C)sc3c2)c1` (single isomer, unassigned) [Example 10], the half-inhibitory concentration (IC50) is greater than 50 nM. The value for `COCC(CC(=O)O)c1ccc(N(CC2CC2)C2CCOCC2)c(NC(=O)Nc2ccc(Cl)cc2F)c1` (single isomer, unassigned) [Example 678, 3-(3-(3-(4-Chloro-2-fluorophenyl)ureido)-4-((cyclopropylmethyl)(tetrahydro-2H-pyran-4-yl)amino)phenyl)-4-methoxybutanoic acid] was greater than 50 nM; that for `CCC(CC(=O)O)c1ccc(N2CCC[C@H]2C(C)(C)O)c(Nc2ccnc(N3CCOCC3)n2)c1` (single isomer, unassigned) [Example 817] was greater than 50 nM. With `COCC(CC(=O)O)c1ccc(N(CC(C)C)C2CCOCC2)c(NC(=O)Nc2ccc(OC)cc2F)c1` (single isomer, unassigned) [Example 1221, 3-(3-(3-(2-Fluoro-4-methoxyphenyl)ureido)-4-(isobutyl(tetrahydro-2H-pyran-4-yl)amino)phenyl)-4-methoxybutanoic] the figure was less than 50 nM; with `CC(CC(=O)O)c1ccc(N2CCC[C@H]2C(C)(C)O)c(Nc2ccc(C#N)cc2)c1` (single isomer, unassigned) [Example 797], greater than 50 nM; with `CCCN(c1ccc([C@@H](CC)CC(=O)O)cc1Nc1cnc(OCC)nc1)C1CCOCC1` (single isomer, unassigned) [Example 535], less than 5 nM. For `COCC(CC(=O)O)c1cc(F)c(N(CC(C)C)CC(C)C)c(NC(=O)Nc2ccc(OC)cc2F)c1` (single isomer, unassigned) [Example 1176, 3-(4-(Diisobutylamino)-3-fluoro-5-(3-(2-fluoro-4-methoxyphenyl)ureido)phenyl)-4-methoxybutanoic acid], the half-inhibitory concentration (IC50) was less than 5 nM. Regarding `CCC(CC(=O)O)c1ccc(N2C[C@@H]3C[C@H]2CN3C(=O)OC(C)(C)C)c(Nc2ccccc2)c1` (single isomer, unassigned) [Example 446], the half-inhibitory concentration (IC50) is less than 50 nM. With `CCC(CC(=O)O)c1ccc(N2CCC[C@H]2C(C)(C)O)c(Nc2ccc(F)cc2)c1` (single isomer, unassigned) [Example 840] the figure was less than 50 nM; with `CCC(CC(=O)O)c1ccc(N2C[C@@H]3C[C@H]2CN3C(=O)OC(C)(C)C)c(Nc2ccc(C)cc2)c1` (single isomer, unassigned) [Example 447], less than 50 nM; with `COCC(CC(=O)O)c1cc(F)c(N(CC(C)C)C2CCCCC2)c(NC(=O)Cc2cc(C)on2)c1` (single isomer, unassigned) [Example 1169, 3-(4-(cyclohexyl(isobutyl)amino)-3-fluoro-5-(2-(5-methylisoxazol-3-yl)acetamido)phenyl)-4-methoxybutanoic acid], greater than 50 nM. With `CCC(CC(=O)O)c1ccc(N2CCOC[C@H]2C(C)C)c(NC(=O)Nc2ccc(OC)cc2F)c1` (single isomer, unassigned) [Example 897] the figure was greater than 50 nM; with `CCc1ccc(Nc2cc(C(CC)CC(=O)O)ccc2N2CCOC[C@H]2C(C)C)cc1` (single isomer, unassigned) [Example 902], less than 5 nM; with `COCC(CC(=O)O)c1ccc(N(CC2CC2)C2CCOCC2)c(Nc2ccc(Cl)c(OCC(F)(F)F)c2)c1` (single isomer, unassigned) [Example 682, 3-(3-((4-chloro-3-(2,2,2-trifluoroethoxy)phenyl)amino)-4-((cyclopropylmethyl) (tetrahydro-2H-pyran-4-yl)amino)phenyl)-4-methoxybutanoic acid], greater than 50 nM. Take `CC(CC(=O)O)c1ccc(N2CCC[C@H]2C(C)(C)O)c(Nc2ccc(Cl)cc2)c1` (single isomer, unassigned) [Example 804]: the IC50 was less than 50 nM. On to `CCN(c1ccc(C(C)(C)CC(=O)O)cc1Nc1ccc2c(c1)OC(F)(F)O2)C1CCOCC1` [Example 161, 3-(3-((2,2-difluorobenzo[d][1,3]dioxol-5-yl)amino)-4-(ethyl (tetrahydro-2H-pyran-4-yl)amino)phenyl)-3-methylbutanoic acid], for which the IC50 is less than 5 nM. `CC(CC(=O)O)c1ccc(N(CC(C)(C)O)C2CCOCC2)c(Nc2ccc(C#N)cc2)c1` (single isomer, unassigned) [Example 196, 3-(3-((4-Cyanophenyl)amino)-4-((2-hydroxy-2-methylpropyl)(tetrahydro-2H-pyran-4-yl)amino)phenyl)butanoic acid]: the half-maximal inhibitory concentration (IC50) was less than 5 nM. As for `CCOc1ccc(NC(=O)Nc2cc(C(CC(=O)O)C3CC3)ccc2N(CC(C)C)C2CCOCC2)cc1` (racemic) [Example 1204, (+/−)-3-Cyclopropyl-3-(3-(3-(4-ethoxyphenyl)ureido)-4-(isobutyl(tetrahydro-2H-pyran-4-yl)amino)phenyl)propanoic acid], the IC50 was less than 50 nM. With `CCN(c1ccc(C(CC(=O)O)c2ccccc2)cc1Nc1ccc(OC(F)F)cc1)C1CCOCC1` (single isomer, unassigned) [Example 583, 3-(3-((4-(difluoromethoxy)phenyl)amino)-4-(ethyl(tetrahydro-2H-pyran-4-yl)amino)phenyl)-3-phenylpropanoic acid], the IC50 is less than 50 nM. Regarding `CC[C@@H](CC(=O)O)c1ccc(N2CCC[C@H]2C(C)(C)O)c(NC(=O)Nc2ccc(C)cc2)c1` (single isomer, unassigned) [Example 769], the IC50 was greater than 50 nM. The value for `CC[C@@H](CC(=O)O)c1ccc(N2CCC[C@@H]2C(C)(C)O)c(Nc2ccc(C#N)cc2)c1` (single isomer, unassigned) [Example 771] was less than 50 nM.

As to `CC[C@@H](CC(=O)O)c1ccc(N(CC)C2CCOCC2)c(Nc2ccc(S(=O)(=O)CC)cc2)c1` (single isomer, unassigned) [Example 485], the IC50 was less than 50 nM.

Source of the values: patent US9790169B2, “IDO inhibitors” (BRISTOL-MYERS SQUIBB COMPANY, priority 2015, dated 2017).
